Patent US20130281313A1, “PROGNOSTIC AND/OR PREDICTIVE BIOMARKERS AND BIOLOGICAL APPLICATIONS THEREOF” (INSTITUT GUSTAVE ROUSSY, priority 2010, published 2013)

Key:
[1] = test system: A549 cells; experiment: Cytofluorometric assessment of cell death (DiOC6(3)/PI co-staining); assay type: cell-based, human
Method: Unless otherwise specified, chemicals were purchased from Sigma-Aldrich (St. Louis, USA), culture media and supplements for cell culture from Gibco-Invitrogen (Carlsbad, USA) and plasticware from Corning (Corning, USA). […] Orlistat (Xenical®) was obtained from Roche (Basel, Switzerland). […] Undissolved material was removed by two sequential rounds of centrifugation at 12,000 G (5 min, room temperature, RT), supernatants were collected and stored at −80° C. under protection from light until use. In low-throughput experiments, all cell lines were treated with 2.5 mM pyridoxine (PN), exception made for A549 cells that received 5 mM PN.
To avoid depleting the siRNA library of selected sequences, siRNAs for validation experiments were purchased as custom molecules from Sigma-Aldrich. For low-throughput experiments, (see below for the transfection protocols employed in the siRNA screen), siRNA were transfected in A549 cells with Oligofectamine™ reagent (Invitrogen), following the manufacturer's instructions. Transfection with a non-targeting siRNA (siUNR) was employed as a negative control condition. Forty-eight hours after transfection, siRNA-mediated target downregulation was assessed by immunoblotting (see below).
All cytofluorometric determinations were carried out a FACSCalibur or a FACScan cytofluorometer (BD Biosciences, San Jose, USA) equipped with a 70 μm nozzle.
First line statistical analysis of cytofluorometric results was performed by using the CellQuest™ software (BD Biosciences), by gating on the events characterized by normal forward scatter and side scatter parameters. Apoptosis- and cell cycle-related data were further analyzed with Microsoft Excel (Microsoft Co., Redmond, USA) and statistical significance was assessed by means of two-tailed Student's t test (p<0.05).

[2] = test system: A549 cells xenografted into immunodeficient Swiss nude mice; experiment: Tumor graft model: A549 cells in Swiss nude mice; assay type: in vivo, mouse; conditions: A549 cells on Swiss nude mice; 5 mg/kg intraperitoneal CDDP + intraperitoneal Orlistat (240 mg/Kg), three times a week
Method: (§1) C57BL/6 (H-2b) and Swiss Nude mice were obtained from Janvier (Le Genest St. Isle, France) and Charles River, respectively. Animals were maintained in pathogen-free conditions, and all experiments were carried out (upon approval by the local ethical committee) according to the Federation of European Laboratory Animal Science Association (FELASA) guidelines. Mice were used between 6 and 12 weeks of age. During the experiments, animals were subjected to artificial light cycle (12 h lights on-12 h lights off) and allowed food and drink ad libitum.
(§2) 5×10^5 LLC and A549 cells were subcutaneously xenografted (in 100 μL sterile PBS) in 25-30 immunocompetent (C57BL/6) and immunodeficient (Swiss Nude) mice, respectively. When the surface of tumors reached 25-40 mm^2, n=4-6 mice were assigned to either of 4 different treatment groups: group 1=100 μL intraperitoneal PBS; group 2=5 mg/kg intraperitoneal CDDP in 100 μL PBS; group 3=240 mg/Kg intraperitoneal Orlistat® in 40 μL PBS; group 4=5 mg/kg intraperitoneal CDDP in 100 μL PBS+intraperitoneal Orlistat® in 40 μL PBS. Treatments were administered three times a week (day 1, 3 and 5; day 8=day 1). Tumor size was monitored on the day of treatment by means of a standard calliper and tumor volume was extrapolated as previously described {Streit, 1999}. […] Statistical significance was evaluated by two-way ANOVA.

[3] = test system: murine Lewis lung carcinoma (LLC) cells in immunocompetent C57BL/6 mice; experiment: Tumor graft model: LLC cells in C57BL/6 mice; assay type: in vivo, mouse; conditions: 5 mg/kg intraperitoneal CDDP + intraperitoneal Orlistat (240 mg/Kg), three times a week
Method: as §1, §2

[4] = test system: Saccharomyces cerevisiae; experiment: Yeast clonogenic survival; assay type: cell-based; conditions: yeast cells, pre-incubated with 1 mM AOAA before CDDP
Method: The haploid WT Saccharomyces cerevisiae strain BY4741 (MATa; his3Δ1; leu2Δ0; met15Δ0; ura3Δ0), its diploid counterpart BY4743 (MATa/MATα; his3Δ1/his3Δ1; leu2Δ0/leu2Δ0; MET15/met15Δ0; LYS2/lys2Δ0; ura3Δ0/ura3Δ0) as well as the null mutants employed in this study were obtained from were obtained from Euroscarf (Frankfurt, Germany). For large-scale experiments (see also FIG. 9), yeast cells were cultured on a routine basis at 28° C., on yeast extract peptone dextrose (YEPD) medium containing 1% yeast extract (Difco Laboratories, Detroit, USA), 2% bacto peptone (Difco Laboratories) and […] {Madeo, 2002}. […]
In all settings, cell number was then quantified by means of a CASY® cell counter (Schärfe System, Reutlingen, Germany) and 500 cells from each experimental condition were seeded on three parallel YEPD plates. Following 3 days of incubation at 28° C., plates were finally subjected to the quantification of colony forming units (CFUs). For each genotype or experimental condition, clonogenic survival was calculated as the ratio between the number of CFUs observed in treated and untreated conditions.

Row | Structure (SMILES) | cytotoxicity of CDDP upon pharmacological inhibition of LIPC ([1]; A549 cells in vitro, 25 or 75 μM CDDP) | CDDP-induced killing, LIPC inhibition (orlistat) combined with IL6R inhibition ([1]; A549 cells, followed by CDDP, DiOC6(3)/PI co-staining) | antitumor effects of CDDP-based chemotherapy (tumor growth) [2] | antitumor effects of CDDP-based chemotherapy (tumor growth) [3] | toxicity of CDDP upon addition of the CCBL1 inhibitor ([1]; A549 cells, 75 μM CDDP) | toxicity of CDDP upon addition of the CCBL1 inhibitor (clonogenic survival) [4]
1 | CCCCCCCCCCC[C@@H](C[C@@H]1OC(=O)[C@H]1CCCCCC)OC(=O)[C@H](CC(C)C)NC=O [Orlistat®, Orlistat] | enhanced the cytotoxiticy of CDDP against A549 cells in vitro | synergistically sensitized to CDDP-induced killing | augmented the antitumor effects of CDDP-based chemotherapy in vivo | augmented the antitumor effects of CDDP-based chemotherapy in vivo | – | –
2 | NOCC(=O)O [AOAA, aminooxyacetic acid] | – | – | – | – | reduced the toxicity of CDDP | reduced the toxicity of CDDP
